Assays:
HIV-1 integrase = biological target: T1, HIV-1 integrase (Human immunodeficiency virus type 1 group M subtype B, UniProt P04585); test: HIV Integrase Substrate Cleavage (trimming of the 3' end of HIV long terminal repeat terminus by HIV-1 integrase); type: biochemical; conditions: inhibition of HIV integrase substrate cleavage; inhibitor 0.75 to 100 μM
T1 construct: HIV long terminal repeat terminus by HIV-1 integrase
Experimental: HIV Integrase Substrate Cleavage
An assay for trimming of the 3' and of HIV long terminal repeat terminus by HIV-1 integrase was conducted according to LaFemina, R. L. et al., J. Virol 10, 5624 (1991), herein incorporated by reference for these purposes. To assay inhibition of HIV integrase substrate cleavage, the reaction was conducted with inhibitor having various concentrations in the range of 0.75 to 100 μM.

HIV integrase = HIV integrase (Human immunodeficiency virus type 1 group M subtype B, UniProt P04585); test: Strand Transfer Assay for HIV Integrase (microtiter assay for ligation of processed donor (HIV) DNA to unspecific, nicked host DNA); type: biochemical; conditions: inhibition of strand transfer by HIV integrase; inhibitor 0.75 to 100 μM
Experimental: Strand Transfer Assay for HIV Integrase
A microtiter assay for ligation of processed donor (HIV) DNA to unspecific, nicked host DNA was conducted according to Hazuda, D. J. et al., Nucl. Acids, Res. 22, 1121 (1994), herein incorporated by reference for these purposes. To assay inhibition of such strand transfer by HIV integrase, the reaction was conducted with inhibition having various concentrations in the range of 0.75 to 100 μM. Representative results follow.

Compound | IC50 (HIV-1 integrase) [µM] | IC50 (HIV integrase) [µM]
Cc1oc2cc3c(-c4c(O)cc(O)c5c(O)c6c(cc45)O[C@@H](C)[C@@H](C)C6=O)c(O)cc(O)c3c(O)c2c(=O)c1C (relative stereo) [Compound D] | 1 | 4
CC1Oc2cc3c(-c4c(O)cc(O)c5c(O)c6c(cc45)OC(C)C(C)C6=O)c(O)cc(O)c3c(O)c2OC(=O)C1C (single isomer, unassigned) [Compound C] | 3 | 9
CC1Oc2cc3c(-c4c(O)cc(O)c5c(O)c6c(cc45)OC(C)C(C)C6=O)c(O)cc(O)c3c(O)c2C(=O)C1C (stereo not drawn) [Compound A] | 2 | 12
COc1cc(O)c2c(OC)c3c(cc2c1-c1c(OC)cc(OC)c2c(OC)c4c(cc12)OC(C)C(C)C4=O)OC(C)C(C)C3=O (stereo not drawn) [Compound F] | 40 | 
COc1cc(OC)c2c(OC)c3c(cc2c1-c1c(OC)cc(OC)c2c(OC)c4c(cc12)OC(C)C(C)C4=O)OC(C)C(C)C3=O (stereo not drawn) [Compound G] | 60 | 
CC(=O)Oc1cc(OC(C)=O)c2c(OC(C)=O)c3c(cc2c1-c1c(OC(C)=O)cc(OC(C)=O)c2c(OC(C)=O)c4c(cc12)OC(C)C(C)C4=O)OC(C)C(C)C3=O (stereo not drawn) [E] | 50 | 

Source: patent US6110716A, “HIV integrase inhibitors” (Merck & Co., Inc., priority 1998, dated 2000)
